In patent US20120245159A1, “COMPOSITION AND METHOD FOR CONTROLLING ARTHROPOD PESTS” (SUMITOMO CHEMICAL COMPANY, LIMITED, priority 2009, published 2012):

Tests used:
[1] = tested on: cotton aphid (Aphis gossypii); assay: Test Example 3: pesticidal effect against cotton aphid by spray treatment (cucumber leaf disk, control value); type: in vivo; details: composition of the compound and clothianidin; spray over cucumber leaf disk, 25° C., 5 days; summary of Table 49
[2] = tested on: brown planthopper (Nilaparvata lugens); assay: Test Example 4: pesticidal effect against brown planthopper by foliage spray treatment of rice (control value); type: in vivo; details: foliage spray of rice seedlings, third-instar larvae, after 5 days
[3] = composition of the compound and clothianidin, summary of Table 50
[4] = composition of the compound and dinotefuran, summary of Table 54
[5] = composition of the compound and imidacloprid, summary of Table 53
[6] = composition of the compound and nitenpyram, summary of Table 51
[7] = composition of the compound and thiamethoxam, summary of Table 52

FC(F)(F)COc1cnccc1-c1nc2cc(C(F)(F)F)ccc2o1 [Compound 39, 2-[3-(2,2,2-trifluoroethyl)oxypyridin-4-yl]-5-(trifluoromethyl)benzoxazole]
high pesticidal efficacy: pesticidal efficacy against cotton aphid (Aphis gossypii) [1] | pesticidal efficacy against brown planthopper (Nilaparvata lugens) [2, 3] | pesticidal efficacy against brown planthopper (Nilaparvata lugens) [2, 4] | pesticidal efficacy against brown planthopper (Nilaparvata lugens) [2, 5] | pesticidal efficacy against brown planthopper (Nilaparvata lugens) [2, 6] | pesticidal efficacy against brown planthopper (Nilaparvata lugens) [2, 7]

CC(C)COc1cnccc1-c1nc2cc(C(F)(F)F)ccc2o1 [Compound 116, 2-(3-isobutoxypyridin-4-yl)-5-(trifluoromethyl)benzoxazole]
high pesticidal efficacy: pesticidal efficacy against cotton aphid (Aphis gossypii) [1] | pesticidal efficacy against brown planthopper (Nilaparvata lugens) [2, 3] | pesticidal efficacy against brown planthopper (Nilaparvata lugens) [2, 4] | pesticidal efficacy against brown planthopper (Nilaparvata lugens) [2, 5] | pesticidal efficacy against brown planthopper (Nilaparvata lugens) [2, 6] | pesticidal efficacy against brown planthopper (Nilaparvata lugens) [2, 7]

CC(C)(C)COc1cnccc1-c1nc2cc(C(F)(F)F)ccc2o1 [Compound 117, 2-[3-(2,2-dimethylpropoxy)pyridin-4-yl]-5-(trifluoromethyl)benzoxazole]
high pesticidal efficacy: pesticidal efficacy against cotton aphid (Aphis gossypii) [1] | pesticidal efficacy against brown planthopper (Nilaparvata lugens) [2, 3] | pesticidal efficacy against brown planthopper (Nilaparvata lugens) [2, 4] | pesticidal efficacy against brown planthopper (Nilaparvata lugens) [2, 5] | pesticidal efficacy against brown planthopper (Nilaparvata lugens) [2, 6] | pesticidal efficacy against brown planthopper (Nilaparvata lugens) [2, 7]

FC(F)(F)COc1cnccc1-c1nc2cc(C(F)(F)F)cnc2o1 [Compound 163]
high pesticidal efficacy: pesticidal efficacy against cotton aphid (Aphis gossypii) [1] | pesticidal efficacy against brown planthopper (Nilaparvata lugens) [2, 3] | pesticidal efficacy against brown planthopper (Nilaparvata lugens) [2, 4] | pesticidal efficacy against brown planthopper (Nilaparvata lugens) [2, 5] | pesticidal efficacy against brown planthopper (Nilaparvata lugens) [2, 6] | pesticidal efficacy against brown planthopper (Nilaparvata lugens) [2, 7]
